Patent publication EP1200395B1, “UREA DERIVATIVES AS INHIBITORS OF CCR-3 RECEPTOR” (KIRIN BEER KABUSHIKI KAISHA, priority 1999, dated 2001)
Structures can show the parent of a compound that is named as a salt.

Molecular target: T1, CCR-3 (Homo sapiens, UniProt P51677)
T1 sequence (P51677 1-355): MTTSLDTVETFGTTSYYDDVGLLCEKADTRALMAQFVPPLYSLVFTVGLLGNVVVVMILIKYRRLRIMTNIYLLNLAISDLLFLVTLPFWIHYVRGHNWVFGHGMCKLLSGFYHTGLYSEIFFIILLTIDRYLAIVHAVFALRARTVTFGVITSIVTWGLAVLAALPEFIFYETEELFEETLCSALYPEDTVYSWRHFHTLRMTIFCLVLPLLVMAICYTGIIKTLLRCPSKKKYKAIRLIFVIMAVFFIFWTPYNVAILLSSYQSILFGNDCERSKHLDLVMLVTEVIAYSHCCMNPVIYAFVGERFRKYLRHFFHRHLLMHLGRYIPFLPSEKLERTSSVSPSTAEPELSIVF
Assay: Eotaxin-induced chemotaxis of CCR-3 transfectant cells (CCR3/U937)
Assay type: cell-based
Parameters: expressed in transfected cells; host or cells: U937
Conditions: 10 µM test compound; eotaxin 1 x 10^-9 M; CCR3/U937 cells (Table 3a)
Method: The inhibitory activity of the compounds against eotaxin-induced chemotaxis was determined by measuring the inhibition of migration of CCR-3 transfectant cells (CCR3/U937), using a minor modification of the method described by Ohashi, H. et al., Int Arch Allergy Immunol. […] The chemotaxis assay was performed in a 24-well culture plate. Human eotaxin suspended in assay medium was added to the wells at 1 x 10^-9 M along with test compounds at various concentrations. For a positive control, eotaxin was added to the wells without a test compound, and for a negative control, neither eotaxin nor a test compound was added to the wells. Chemotaxicell (Kurabo Co., Ltd.) having 5 micrometers pore size were inserted into each well and 100 micro liters of CCR-3 transfectant cells suspension were added to the top chamber. The plates were incubated at 37 °C for 1 hour. After incubation, migrated cells in lower wells were diluted and counted by particle size distribution analyzer (CDP-500, Sysmex Co., Ltd.).

Chemotaxis Assay 10 µM (inhibition %) [%] | SMILES
100 | COC(=O)CCCN(CCCNC(=O)Nc1ccc(Br)cc1)[C@@H]1CCCc2ccccc21 [Compound 180, Methyl 4-[[3-(4-bromophenylureido)propyl][(1R)-1,2,3,4-tetrahydro-1-naphthyl]amino]burylate]
100 | O=C(O)CCCN(CCCNC(=O)Nc1ccc(Cl)c(C(F)(F)F)c1)C1CCCc2ccccc21 (stereo not shown) [Compound 84]
100 | COc1cccc(NC(=O)NCCCN(CCCC(=O)O)C2CCCc3ccccc32)c1 (stereo not shown) [Compound 261]
100 | Cc1cc(Br)ccc1NC(=O)NCCCN(CCCC(=O)O)C1CCCc2ccccc21 (stereo not shown) [Compound 201]
88 | O=C(O)CCCN(CCCNC(=O)Nc1ccc(Br)cc1)C1c2ccccc2CC1O (stereo not shown) [Compound 273]
95 | O=C(O)CCCN(CCCNC(=O)Nc1ccc2ccccc2c1)C1CCCc2ccccc21 (stereo not shown) [Compound 265]
89 | O=C(O)CCCN(CCCNC(=O)Nc1ccc(Br)cc1)Cc1ccc2c(c1)OCO2 [Compound 70]
97 | O=C(O)CCCN(CCCNC(=O)Nc1ccccc1)C1CCCc2ccccc21 (stereo not shown) [Compound 87]
91 | O=C(O)CCCN(CCCNC(=O)Nc1ccc(C(=O)O)cc1)C1CCCc2ccccc21 (stereo not shown) [Compound 235]
100 | CC(c1ccc([N+](=O)[O-])cc1)N(CCCNC(=O)Nc1ccc(Br)cc1)CCCC(=O)O (stereo not shown) [Compound 259]
100 | COC(=O)CCCN(CCCNC(=O)Nc1ccc(Br)cc1)Cc1ccccc1 [Compound 37]
63 | N#Cc1ccc(CN(CCCNC(=O)Nc2ccccc2)CCc2ccc(Cl)cc2)cc1 [Compound 16]
86 | O=C(NCCCN(Cc1ccc(C(=O)O)cc1)C1CCCc2ccccc21)Nc1ccc(Br)cc1 (stereo not shown) [Compound 223]
90 | CCN(CCCNC(=O)Nc1ccccc1)CCc1ccc(C)cc1 [Compound 231]
84 | NC(=O)CCN(CCCNC(=O)Nc1ccccc1)CCc1ccc(Cl)cc1 [Compound 243]
53 | N#Cc1ccc(CN(CCCNC(=O)Nc2ccccc2)CCc2ccc(Cl)cc2)cc1 [Compound 291]
89 | O=C(O)CCCN(CCCNC(=O)Nc1ccc(Oc2ccccc2)cc1)C1CCCc2ccccc21 (stereo not shown) [Compound 89]
99 | COC(=O)CCCN(CCCCNC(=O)Nc1ccc(Br)cc1)C1CCCc2ccccc21 (stereo not shown) [Compound 32, Methyl 4-[[4-(4-bromophenylureido)butyl](1,2,3,4-tetrahydro-1-naphthyl)amino]butylate]
100 | CCN(CCCNC(=O)Nc1ccccc1)CCc1ccccc1Cl [Compound 232]
62 | COC(=O)CCCN(CCCNC(=O)Nc1ccc(Br)cc1)C(Cc1ccccc1)c1ccccc1 (stereo not shown) [Compound 45]
100 | Cc1ccc(C(C)N(CCCNC(=O)Nc2ccc(Br)cc2)CCCC(=O)O)cc1 (stereo not shown) [Compound 226]
100 | COC(=O)CCCN(CCCNC(=O)Nc1ccc(Br)cc1)C1Cc2ccccc2C1 [Compound 174]
100 | CSc1ccc(NC(=O)NCCCN(CCCC(=O)O)C2CCCc3ccccc32)cc1 (stereo not shown) [Compound 264]
100 | C=CCN(CCCNC(=O)Nc1ccccc1)CCc1ccc(Cl)cc1 [Compound 221]
97 | O=C(NCCCN(CCCCCO)C1CCCc2ccccc21)Nc1ccc(Br)cc1 (stereo not shown) [Compound 205]

SMILES | Chemotaxis Assay 10 µM (inhibition %) [%]
COC(=O)CCCN(CCCNC(=O)Nc1ccc(C)cc1)C1CCCc2ccccc21 (stereo not shown) [Compound 34, Methyl 4-[[3-(4-methylphenylureido)propyl](1,2,3,4-tetrahydro-1-naphthyl)amino]butylate] | 96

Same assay, conditions: 10 µM test compound; eotaxin 1 x 10^-9 M; CCR3/U937 cells (Table 3c)

Chemotaxis Assay 10 µM (inhibition %) [%] | SMILES
100 | CC[N+](CCCNC(=O)Nc1ccccc1)(CCc1ccc(Cl)cc1)Cc1cccc(OC)c1.[I-] (stereo not shown) [compound 331]
100 | CC[N+](CCCNC(=O)Nc1ccccc1)(CCc1ccc(Cl)cc1)Cc1cccc(C(=O)OC)c1.[I-] (stereo not shown) [compound 332]
100 | CC[N+](CCCNC(=O)Nc1ccc(Cl)c(Cl)c1)(CCc1ccc(Cl)cc1)Cc1ccccc1.[I-] (stereo not shown) [compound 325]
100 | CCOC(=O)CCCCC[N+](CC)(CCCNC(=O)Nc1ccccc1)CCc1ccc(Cl)cc1.[I-] (stereo not shown) [compound 321]

Same assay, conditions: U-937; 10 µM test compound; eotaxin 1 x 10^-9 M; CCR3/U937 cells (Table 3a)

inhibition at 10 µM [%] | SMILES
100 | O=C(O)CCCN(CCCNC(=O)Nc1ccc(I)cc1)C1CCCc2ccccc21 (stereo not shown) [Compound 229, 4-[[3-(4-Iodophenylureido)propyl](1,2,3,4-tetrahydro-1-naphthyl)amino]butanoic acid]
58 | COc1ccc(CN(CCCNC(=O)Nc2ccccc2)CCc2ccc(Cl)cc2)cc1 [Compound 18]
100 | Cc1ccc(NC(=O)NCCCN(CCCC(=O)O)C2CCCc3ccccc32)cc1 (stereo not shown) [Compound 64, 4-[[3-(4-Methylphenylureido)propyl](1,2,3,4-tetrahydro-1-naphthyl)-amino]butanoic acid]

Same assay, conditions: U-937; 10 µM test compound; eotaxin 1 x 10^-9 M; CCR3/U937 cells (Table 3c)

inhibition at 10 µM [%] | SMILES
82 | CC[N+](CCCNC(=O)Nc1ccc(Br)cc1)(CCCC(=O)O)[C@H](C)c1ccccc1 (stereo partly drawn) [Compound 316, [3-(4-Bromophenylureido)propyl][(1R)-1-phenylethyl][3-(carboxy)propyl]ethylammonium trifluoroacetate]

Same assay, conditions: test compound 0.1 µg/ml; eotaxin 1 x 10^-9 M; CCR3/U937 transfectants; 37 °C, 1 hour

Chemotaxis Assay 0.1 µg/ml (inhibition %) [%] | SMILES
87 | CC[N+](CCF)(CCCNC(=O)Nc1ccc(OC)cc1)CCc1ccc(Cl)c(Cl)c1.[I-] (stereo not shown) [compound 453]
95 | CC[N+](CCCNC(=O)Nc1ccccc1)(CCOCCOC)CCc1cccc(Cl)c1.[I-] (stereo not shown) [compound 413]
35 | CCC(CC)C[N+](CC)(CCCNC(=O)Nc1ccc(OC)cc1)CCc1cccc(F)c1.[I-] (stereo not shown) [compound 450]
87 | CC[N+](CCCNC(=O)Nc1ccc(Br)cc1)(CCc1cccc(Cl)c1)CC1CCC1.[I-] (stereo not shown) [compound 376]
91 | CC[N+](CCCNC(=O)Nc1ccc(Br)cc1)(CCOCCOC)CCc1cccc(F)c1.[I-] (stereo not shown) [compound 375]
64 | CC[N+](CCF)(CCCNC(=O)Nc1ccc(Cl)c(Cl)c1)CCc1ccccc1.[I-] (stereo not shown) [compound 370]
81 | C=C(C)C[N+](CC)(CCCNC(=O)Nc1ccc(Br)cc1)CCc1cccc(Cl)c1.[I-] (stereo not shown) [compound 378]
70 | CC[N+](CCCNC(=O)Nc1ccc(Cl)c(Cl)c1)(CCOCCOC)CCc1cccc(F)c1.[I-] (stereo not shown) [compound 360]
57 | CC[N+](CCF)(CCCNC(=O)Nc1ccc(C#N)cc1)CCc1c(Cl)cccc1Cl.[I-] (stereo not shown) [compound 405]
46 | CCC(CC)C[N+](CC)(CCCNC(=O)Nc1ccc(Br)cc1)CCc1ccc(Cl)c(Cl)c1.[I-] (stereo not shown) [compound 380]
56 | CC[N+](CCCNC(=O)Nc1ccc(C(F)(F)F)cc1)(CCOCCOC)CCc1ccc(Cl)cc1Cl.[I-] (stereo not shown) [compound 388]
64 | CCC(CC)C[N+](CC)(CCCNC(=O)Nc1ccccc1)CCc1ccc(Cl)cc1Cl.[I-] (stereo not shown) [compound 429]
